Data on 26 molecules can be found in PubChem BioAssay (NCI).

What all share (experiment): growth of human tumour cells (NCI), 48 h
The test system of assay [1] is 786-0 renal.
Assay [2] concerns COLO 205 colon.
Assay [3] concerns HCT-116 colon.
Assay [4] relates to HOP-92 NSCLC.
The subject of assay [5] is OVCAR-5 ovarian.
For assay [6], the system named is PC-3 prostate.
In assay [7] the test system is SF-295 CNS.
In assay [8] the test system is SNB-75 CNS.
The subject of assay [9] is SR leukemia.
Assay [10] concerns SW-620 colon.

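Test compounds were applied to cells in 96-well plates for 48 hours at 5 doses. Abbreviation: GI50, concentration required for 50% inhibition of growth. The concentration for full growth arrest is given as TGI.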 Where a SMILES comes first, the peptide text is derived from it.

Turning to `Cc1cc(OP2(=O)NCc3ccncc3O2)ccc1Cl` (configuration not stated), the TGI in [1], in assay [2], in assay [3], in [4], in assay [5] and in [6] was over 100 µM throughout. The TGI in assay [7], in assay [8], in [9] and in assay [10] was over 100 µM throughout.
In the case of `Cc1cn(C(CO)OC(CO)CN(O)C2C3CC4CC(C3)CC2C4)c(=O)[nH]c1=O` (configuration not stated), the TGI in assay [1], in [2], in assay [3], in assay [4], in assay [5] and in assay [6] was over 100 µM in each case. Moreover, the TGI in [7], in assay [8], in assay [9] and in assay [10] was over 100 µM each time.
For the molecule `CCN(CC)CCOCCOCC1(c2ccc(Cl)c(Cl)c2)CCCCC1`, the TGI in [1] is 9.07 µM; in assay [2], 11.9 µM; in assay [3], 18.8 µM; in assay [4], 17.7 µM; in assay [5] it was 24 µM; in [6], 23.3 µM. Also, the TGI in assay [7] is 15.1 µM; in assay [8] it was 20.4 µM; in assay [9] it was 26.8 µM; in assay [10], 21.9 µM.
For `COc1c(O)cc2c(c1O)C(=O)C(Cc1ccc(O)cc1)CO2` (configuration not stated), the TGI in assay [1], in assay [2], in assay [3], in assay [4], in assay [5] and in [6] was over 100 µM throughout. Further, the TGI in [7] was over 100 µM; in assay [8], 91.9 µM; in [9], over 100 µM; in assay [10], over 100 µM.
Turning to `COc1ccc2[nH]c3c(c2c1)CCc1c(OC)cccc1-3`, the TGI in assay [1], in [2], in assay [3], in [4], in [5] and in assay [6] was over 100 µM each time. Also, the TGI in [7], in assay [8], in [9] and in [10] was over 100 µM in each case.
`Fc1ccccc1-c1cc(=S)c2cc3c(cc2[nH]1)OCO3`: the TGI was over 100 µM in assay [1]; over 89 µM in assay [2]; over 100 µM in [3]; over 100 µM in assay [4]; over 100 µM in [5]; over 80.2 µM in assay [6]. Also, the TGI in [7], in [9] and in assay [10] was over 100 µM each time.
Take `C[C@H](CCC(=O)O)[C@H]1CC[C@H]2[C@@H]3[C@@H](O)C[C@@H]4C[C@H](O)CC[C@]4(C)[C@H]3C[C@H](O)[C@]12C`: the TGI in assay [1], in assay [2], in assay [3], in [4], in assay [5] and in [6] was over 100 µM each time. Further, the TGI in [8], in assay [9] and in assay [10] was over 100 µM each time.
As to `COC(=O)Cc1cccc2c(=O)c(S(=O)(=O)NC(=O)Nc3ccc(Cl)cc3)c(-c3ccccc3)oc12`, the TGI in assay [1], in assay [2], in assay [3], in assay [4], in assay [5] and in assay [6] was over 100 µM throughout. For the same molecule, the TGI in assay [7], in [8], in [9] and in assay [10] was over 100 µM each time.
In the case of `CCCC(=O)Oc1c2ccsc2c(OC(=O)CCC)c2ccsc12`, the TGI was 8.04 µM in assay [1]; 19.7 µM in assay [2]; 4.82 µM in [3]; 3.06 µM in assay [4]; 7.36 µM in [5]; 3.52 µM in assay [6]. Besides, the TGI in [7] was 0.885 µM; in assay [9], 7.32 µM; in [10], 8.9 µM.
Take `CC(=O)NC(CS)C(=O)NC(CO)C(=O)NC(CO)C(=O)NC(Cc1c[nH]c2ccccc12)C(=O)N1CCCC1C(=O)NC(CO)C(=O)NC(Cc1c[nH]c2ccccc12)C(=O)NC(Cc1c[nH]cn1)C(=O)NC(CO)C(=O)NC(Cc1c[nH]c2ccccc12)C(=O)NCC(=O)NCC(=O)NC(C)C(=O)NC(CCC(N)=O)C(=O)NC(CCCCN)C(=O)NC(C)C(=O)NC(CCCNC(=N)N)C(=O)NC(CCCCN)C(N)=O` (configuration not stated) (Ac-CSSWPSWHSWGGAQKARK-NH2; configuration not given here): the TGI is 19.5 µM in [1]; 28.2 µM in [2]; over 50 µM in assay [3]; over 50 µM in [4]; over 50 µM in [5]; over 50 µM in [6]. Also, the TGI in assay [7] is over 50 µM; in [8] it was 42.1 µM; in [9], 43.4 µM; in assay [10] it was over 50 µM.
For the molecule `C=CC(=C)CCC(Br)C(C)(C)Br` (configuration not stated), the TGI in assay [1], in assay [2], in [3], in assay [4], in assay [5] and in assay [6] was over 100 µM in each case. The TGI in [7], in [8], in assay [9] and in assay [10] was over 100 µM throughout.
As for `COc1ccc(CC2Cc3ccccc3CC(=O)N2)cc1OC` (configuration not stated), the TGI in assay [1], in [2], in [3], in assay [4], in assay [5] and in assay [6] was over 100 µM in each case. Also, the TGI in assay [7], in assay [8], in assay [9] and in assay [10] was over 100 µM throughout.
As to `Cc1nc(-c2cccnc2)sc1C(=O)CC(=O)C(=O)Nc1cccc(NC(=O)C(=O)CC(=O)c2sc(-c3cccnc3)nc2C)n1`, the TGI in [1], in assay [2], in [3], in assay [4], in [5] and in assay [6] was over 100 µM in each case. The TGI in assay [7], in assay [8], in [9] and in assay [10] was over 100 µM throughout.
On to `CC12CP(=O)(O)CC1C2(Cl)Cl` (configuration not stated), for which the TGI in assay [1], in assay [2], in [3], in [4], in assay [5] and in [6] was over 100 µM in each case. The TGI in [7], in assay [8], in assay [9] and in assay [10] was over 100 µM throughout.
As to `CC(C)(C)n1[nH]c(=O)n(C(C)(C)C)c1=O`, the TGI in assay [1], in assay [2], in assay [3], in assay [4], in assay [5] and in assay [6] was over 100 µM throughout. In addition, the TGI in assay [7], in [8], in assay [9] and in [10] was over 100 µM throughout.
On to `N#CC12CC(C=O)=C(N)C1(C#N)CC(C=O)=C2N` (configuration not stated), for which the TGI in assay [1], in assay [2], in assay [3], in assay [4], in [5] and in assay [6] was over 100 µM each time. In addition, the TGI in assay [7], in assay [8], in [9] and in assay [10] was over 100 µM each time.
`CSc1c(C(N)=S)c(N)nn1-c1ccccc1`: the TGI in [1], in [2], in assay [3], in assay [4], in [5] and in assay [6] was over 100 µM in each case. The TGI in assay [8], in assay [9] and in assay [10] was over 100 µM in each case.
Regarding `COc1ccc(C/C=C(\C)CCO)cc1`, the TGI in assay [1], in assay [2], in assay [3], in assay [4], in assay [5] and in [6] was over 100 µM each time. Besides, the TGI in [7], in assay [8], in assay [9] and in assay [10] was over 100 µM in each case.
For the molecule `Cc1cc(C)n(CN(CCCCO)Cn2nc(C)cc2C)n1`, the TGI in [1] was 36.7 µM; in assay [2] it was 31.7 µM; in assay [3], 36.4 µM; in assay [4] it was 81 µM; in assay [5], 51.1 µM; in assay [6] it was 57.7 µM. Moreover, the TGI was over 100 µM in assay [7], 28.7 µM in [9] and 63 µM in [10].
With `O=C(N/N=C\c1ccc(N(CCCl)CCCl)cc1)c1cccnc1`, the GI50 in assay [2] is over 100 µM; in [3], 51 µM; in [4] it was 30.6 µM; in [5] it was over 100 µM; in assay [6], 65.4 µM; in assay [7], 6.31 µM. Further, the figures for the GI50 in assay [8], in assay [9] and in [10] were 33.7 µM, 3.1 µM and over 100 µM, respectively. The TGI in assay [2] was over 100 µM; in assay [3], over 100 µM; in assay [4], over 100 µM; in assay [5] it was over 100 µM; in [6] it was over 100 µM; in assay [7], 73.2 µM. Also, the TGI in assay [8], in assay [9] and in assay [10] was over 100 µM each time.
As for `CC1=C/C(=N\NS(=O)(=O)c2ccc([N+](=O)[O-])cc2)CC(C)(C)C1`, the TGI was over 100 µM in assay [1]; over 100 µM in assay [2]; over 100 µM in [3]; 75.6 µM in [4]; over 100 µM in [5]; over 100 µM in [6]. Besides, the TGI in [7], in assay [9] and in [10] was over 100 µM in each case.
Take `C/C(CC(O)(C(F)(F)F)C(F)(F)F)=N\NC(N)=S`: the TGI in assay [1], in assay [2], in [3], in [4], in assay [6] and in [7] was over 10 µM in each case. Further, the TGI in assay [8], in [9] and in assay [10] was over 10 µM in each case.
Take `CC(C)CC(C#CCCOC(=O)c1ccccc1)OC(=O)c1ccccc1` (configuration not stated): the TGI in assay [1], in [3], in assay [4], in [5], in [6] and in assay [7] was over 10 µM each time. For the same molecule, the TGI in [8], in assay [9] and in assay [10] was over 10 µM throughout.
For the molecule `CCCC(=O)Nc1cc(/C=C/C(=O)N2CC(CCl)c3ccc([N+](=O)[O-])cc32)n(C)c1` (configuration not stated), the TGI in [1], in [2], in assay [3], in assay [5], in assay [6] and in assay [7] was over 100 µM throughout. Moreover, the TGI in [8], in [9] and in [10] was over 100 µM in each case.
`COc1cc(/C=C2\N=C(c3ccccc3)N(c3nc4ccccc4s3)C2=O)cc(OC)c1OC`: the TGI in assay [1] is 69.3 µM; in assay [3], over 100 µM; in [4], 74.5 µM; in [5], over 100 µM; in assay [6], over 100 µM; in [7], over 100 µM. Also, the values for the TGI in assay [8], in assay [9] and in assay [10] were 61 µM, 42.5 µM and over 100 µM, respectively.
Consider `CCCNC(=O)Cn1c2c(c3ccccc31)CCCC2`, for which the TGI in assay [1], in assay [2], in assay [3], in assay [4], in [5] and in assay [6] was over 100 µM each time. The TGI in [7], in assay [9] and in [10] was over 100 µM throughout.
